Assay [1] has as its target T1, human metabotropic glutamate receptor mGluR5 (Homo sapiens, UniProt P41594).
T1 construct: expressed in transfected cells; host or cells: CHO-K1 (h5CHO), IPTG-inducible
Briefly: Cytosolic calcium studies with stably transfected cells (h5CHO), functional assay of mGluR5 receptors. The settings on record: Table A3 (SAMs / very weak PAMs); agonist EC50 shift with 10 µM modulator or vehicle; h5CHO cells. In kind it is cell-based. A digest of the protocol: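 IPTG-induced h5CHO (CHO-K1 expressing human mGluR5) loaded with calcium dye; compounds (0.5% DMSO) added 5 min before agonist. NAM IC50 against L-quisqualate at ~EC80; PAM EC50 with EC20 L-glutamate. FLIPR fluorescence, max-minus-min, % of maximal response, logistic fit.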

Another assay has as its target T2, mGluR5 binding site (Rattus norvegicus, UniProt P31424).
T2 construct: from tissue; host or cells: cortex of adult male Sprague-Dawley rats, membrane preparation
Briefly: [3H]-M-MPEP displacement studies on rat cortical membranes. Conditions: Table A3, [3H]-M-MPEP 2 nM, 4°C for 1 h, median, read-out: Ki (MMPEP). On the procedure:
Tissue preparation is performed according to Foster & Wong (Br. J. Pharmacol., 1987, 91, 403-409) with some modifications. Anaesthetised male Sprague-Dawley rats (200-250 g, Janvier, Le Genest-Isle, France) are decapitated and their brains are removed rapidly. The cortex is dissected out and processed as described by Parsons, et al. (J. Pharmacol. Exp. Ther., 1997, 283(3): 1264-1275). For isolation of the cell membranes, the cortices are homogenized in 20 volumes of ice-cold 0.32 M sucrose (Sigma-Aldrich, Taufkirchen, Germany) using a glass-Teflon homogenizer. The homogenate is centrifuged at 1000 x g for 10 minutes, the pellet is discarded and the supernatant centrifuged at 20,000 x g for 20 minutes. The resulting pellet is resuspended in 20 volumes of distilled water and centrifuged for 20 minutes at 8000 x g. The supernatant and the buffy coat are then centrifuged six times (48,000 x g for 20 minutes) in the presence of 5 mM Tris-HCl, pH 7.5. All centrifugation steps are carried out at 4°C. After resuspension in 5 volumes of 5 mM Tris-HCl, pH 7.5, the membrane suspension is frozen rapidly at -80°C.
On the day of assay, the membrane suspensions are thawed, centrifuged (48,000 x g for 20 minutes) and then resuspended in 50 mM Tris-HCl, pH 7.5 (assay buffer). The amount of protein in the final membrane preparation is determined according to the method of Lowry, et al. (J. Biol. Chem., 1951, 193, 256-275). The final concentration used for our studies is 400 µg / ml.
The Tecan robotic system designed for binding assays is loaded with the membrane solution, a 96 well stock plate containing the solutions for bound control (buffer/DMSO 10%), unlabeled MPEP (10 µM) for evaluation of non-specific binding, all compounds to be tested (at 20-fold concentrations), various empty 96-well plates for dilutions and the final assay plates, as well as a 96-well plate filled with the radioligand.
Before performing displacement studies, saturation experiments are performed to determine the equilibrium dissociation constant (Kd, Cheng and Prussoff, Biochem. Pharmacol., 1973, 22: 3099-3108) of [^3H]-M-MPEP, which is a parameter for the affinity of the radioligand to the binding site. On the basis of the saturation experiments, a final [^3H]-M-MPEP concentration of 2 nM was selected.
Firstly, the assay plates are loaded with membrane solution and are shaken at 4°C. The mother plates were then prepared by pipetting the compounds (n = 5) into assay buffer/10% DMSO to obtain the desired final concentrations. After transferring radioligand into the assay plates, the compounds are added (including the non-specific binding control containing MPEP). The final DMSO concentration is always 1 %. The assay plates are incubated and shaken at 4°C for 1 h, before the mixture is exhausted as rapidly as possible via a vacuum manifold using the Multiscreen HTS glass fibre (type B) high flow filter plates (Millipore, Schwalbach, Germany) under a constant vacuum of 450 mbar. The membranes are washed four times with cold assay buffer (100 µL). 50 µL of Ultima Gold scintillation cocktail (PerkinElmer) is added to the wet filter plates and incubated at rt overnight before counting the disintegration per minutes using a liquid scintillation counter (MicroBeta, PerkinElmer).
For the evaluation of the test compound binding affinity to the mGluR5 binding site and its potency to displace [^3H]-M-MPEP, the measured radioactivity of the radioligand alone was set as 100% bound control and the non-specific binding of the radioligand represented the 0% control. The residual radioactivity after displacement of the test compound was then corrected with respect to the set controls. Data are given as median IC50 and Ki, respectively.

Among the data in patent publication EP2650284A1, “Heterocyclic derivatives as metabotropic glutamate receptor modulators” (Merz Pharma GmbH & Co. KGaA, priority 2012, dated 2013) are h left shift and Ki values, retold here.

By Ki is commonly meant the dissociation constant of the complex between target and ligand, obtained from inhibition or displacement.

T2 sequence (P31424 21-1203): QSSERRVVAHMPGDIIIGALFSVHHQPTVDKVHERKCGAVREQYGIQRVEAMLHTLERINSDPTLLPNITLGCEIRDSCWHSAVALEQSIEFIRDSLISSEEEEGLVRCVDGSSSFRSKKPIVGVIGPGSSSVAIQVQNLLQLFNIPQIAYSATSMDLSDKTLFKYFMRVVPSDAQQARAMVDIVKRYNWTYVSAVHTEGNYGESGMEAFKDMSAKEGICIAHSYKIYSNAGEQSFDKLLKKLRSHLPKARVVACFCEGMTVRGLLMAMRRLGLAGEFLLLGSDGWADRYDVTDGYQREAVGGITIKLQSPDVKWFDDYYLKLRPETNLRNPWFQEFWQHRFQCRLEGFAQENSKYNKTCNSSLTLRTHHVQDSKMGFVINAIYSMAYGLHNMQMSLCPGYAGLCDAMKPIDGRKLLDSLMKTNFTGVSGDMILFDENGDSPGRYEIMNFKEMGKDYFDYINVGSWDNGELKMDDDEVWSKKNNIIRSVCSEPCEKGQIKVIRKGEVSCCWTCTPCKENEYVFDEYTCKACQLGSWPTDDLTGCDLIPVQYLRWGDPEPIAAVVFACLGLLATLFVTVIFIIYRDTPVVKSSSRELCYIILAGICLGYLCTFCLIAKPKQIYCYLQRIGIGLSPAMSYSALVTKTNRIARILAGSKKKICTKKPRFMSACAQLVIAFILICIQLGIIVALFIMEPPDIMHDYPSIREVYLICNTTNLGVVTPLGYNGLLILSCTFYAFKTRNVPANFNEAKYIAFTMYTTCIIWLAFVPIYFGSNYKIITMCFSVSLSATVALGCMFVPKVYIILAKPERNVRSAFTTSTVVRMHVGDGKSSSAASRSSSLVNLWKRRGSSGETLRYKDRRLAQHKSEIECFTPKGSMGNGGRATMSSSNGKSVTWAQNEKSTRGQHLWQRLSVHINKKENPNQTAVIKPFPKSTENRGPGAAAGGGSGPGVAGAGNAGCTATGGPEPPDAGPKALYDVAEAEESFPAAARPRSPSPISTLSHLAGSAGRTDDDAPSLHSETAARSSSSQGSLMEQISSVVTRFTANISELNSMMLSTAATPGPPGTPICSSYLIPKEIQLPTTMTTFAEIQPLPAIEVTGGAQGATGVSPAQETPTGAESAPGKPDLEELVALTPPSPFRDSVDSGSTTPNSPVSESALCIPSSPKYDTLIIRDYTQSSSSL
T1 sequence (P41594 21-1212): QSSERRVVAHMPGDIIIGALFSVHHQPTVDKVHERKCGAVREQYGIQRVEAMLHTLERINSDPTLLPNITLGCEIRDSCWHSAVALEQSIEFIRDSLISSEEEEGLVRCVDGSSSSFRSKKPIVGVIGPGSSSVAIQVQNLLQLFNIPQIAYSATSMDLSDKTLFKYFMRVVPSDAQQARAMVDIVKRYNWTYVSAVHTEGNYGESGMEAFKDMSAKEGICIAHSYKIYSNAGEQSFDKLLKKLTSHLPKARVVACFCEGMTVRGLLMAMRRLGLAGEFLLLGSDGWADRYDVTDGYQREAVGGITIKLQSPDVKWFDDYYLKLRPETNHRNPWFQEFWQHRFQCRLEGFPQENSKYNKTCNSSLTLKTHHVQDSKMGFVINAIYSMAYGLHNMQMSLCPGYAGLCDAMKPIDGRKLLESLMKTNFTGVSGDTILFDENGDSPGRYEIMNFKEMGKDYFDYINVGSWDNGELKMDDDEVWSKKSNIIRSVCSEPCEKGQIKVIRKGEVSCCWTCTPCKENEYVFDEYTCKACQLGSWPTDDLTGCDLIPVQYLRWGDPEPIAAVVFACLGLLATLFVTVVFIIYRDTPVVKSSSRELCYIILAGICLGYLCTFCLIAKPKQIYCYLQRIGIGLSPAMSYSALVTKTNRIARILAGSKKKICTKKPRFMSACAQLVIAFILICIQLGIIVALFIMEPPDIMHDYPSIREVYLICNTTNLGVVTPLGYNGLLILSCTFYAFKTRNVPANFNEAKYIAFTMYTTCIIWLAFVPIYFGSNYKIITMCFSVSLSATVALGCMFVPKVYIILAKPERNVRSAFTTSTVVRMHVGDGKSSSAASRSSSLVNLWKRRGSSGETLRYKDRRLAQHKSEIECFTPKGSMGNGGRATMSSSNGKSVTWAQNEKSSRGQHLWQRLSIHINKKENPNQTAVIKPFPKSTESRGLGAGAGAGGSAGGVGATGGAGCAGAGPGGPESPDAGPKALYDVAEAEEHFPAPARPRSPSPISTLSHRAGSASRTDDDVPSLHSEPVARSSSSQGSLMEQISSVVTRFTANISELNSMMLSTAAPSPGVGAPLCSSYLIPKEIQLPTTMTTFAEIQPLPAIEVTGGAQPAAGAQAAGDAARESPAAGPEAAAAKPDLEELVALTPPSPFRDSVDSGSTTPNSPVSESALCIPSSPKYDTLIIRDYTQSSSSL

Turning to “(rac)-cis-Methyl 3-((3-fluorophenyl)ethynyl)-6a,7,9,9a-tetrahydro-5H-pyrrolo[3,4-h]quinoline-8(6H)-carboxylate [Example 32]”, in assay [1], the h left shift is 0.9-fold. Moreover, the Ki on mGluR5 binding site amounted to 49.3 nM.
